{"source": "patent US20060167083A1", "about": "“Therapeutic methods and compositions involving isoflav-3-ene and isoflavan structures” (priority 2002, published 2006)", "key": {"[1]": {"system": "K562, HL60, MCF7, HT29, CaCo-2, DU145, PC3 and LNCaP cell lines", "test": "Cytotoxic potency compared with genistein on the cancer cell line panel", "format": "cell-based", "conditions": "on these cell lines"}, "[2]": {"target": "T1, human topo I (Homo sapiens, UniProt P11387)", "T1 construct": "purchased Topogen (Columbus, Ohio)", "T1 sequence (P11387 1-765)": "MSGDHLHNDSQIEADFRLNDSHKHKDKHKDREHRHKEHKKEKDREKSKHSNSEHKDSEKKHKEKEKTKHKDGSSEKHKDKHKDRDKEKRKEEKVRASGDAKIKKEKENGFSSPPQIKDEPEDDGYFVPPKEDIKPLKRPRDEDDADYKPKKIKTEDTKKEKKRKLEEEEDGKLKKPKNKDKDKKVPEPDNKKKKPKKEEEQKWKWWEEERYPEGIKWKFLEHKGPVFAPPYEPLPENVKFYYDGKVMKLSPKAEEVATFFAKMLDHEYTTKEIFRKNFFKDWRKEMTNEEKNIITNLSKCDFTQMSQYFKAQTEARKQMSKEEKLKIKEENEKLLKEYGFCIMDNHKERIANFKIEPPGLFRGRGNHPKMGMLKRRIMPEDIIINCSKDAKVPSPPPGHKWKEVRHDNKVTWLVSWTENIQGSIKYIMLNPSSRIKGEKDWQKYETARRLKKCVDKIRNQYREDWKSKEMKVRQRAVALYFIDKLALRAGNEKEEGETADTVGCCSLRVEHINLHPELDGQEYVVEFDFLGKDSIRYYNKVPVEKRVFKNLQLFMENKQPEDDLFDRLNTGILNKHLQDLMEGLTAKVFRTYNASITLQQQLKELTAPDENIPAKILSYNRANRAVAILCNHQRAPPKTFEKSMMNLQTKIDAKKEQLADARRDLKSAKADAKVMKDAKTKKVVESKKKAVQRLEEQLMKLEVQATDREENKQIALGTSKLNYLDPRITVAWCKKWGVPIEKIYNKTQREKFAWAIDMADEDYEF", "test": "Topo I-mediated plasmid relaxation assay", "format": "biochemical", "conditions": "concentrations up to 100 μg/ml, absence of ATP", "quoted_text": "Topo I activity was determined by converting supercoiled pUC8 DNA (SC) into its relaxed from (REL).\nFor the determination of topoisomerase (topo) I catalytic activity, pUC8 DNA was used as the substrate in a reaction volume of 20 μl containing the following: 10 mM Tris-HCl, pH 7.9, 1 mM EDTA, 150 mM NaCl, 0.1% BSA, 0.1 mM spermidine, 5% glycerol, and 2 units of purified human topo I. The inhibitor, when applicable, was added as indicated, and the reaction was initiated by the addition of the enzyme. Reactions were carried out at 37° C. for 30 min. Gel electrophoresis was performed at 4 V/cm for 5 h in Tris-borate-EDTA buffer. For the quantitative determination of topo I activity, photographic negatives were scanned. The area representing supercoiled DNA, migrating as a single band at the bottom of the gel, was determined. The concentrations of the inhibitor that prevented 50% of the supercoiled DNA from being converted into relaxed DNA (IC50 values) were determined by averaging the data from at least three experiments."}, "[3]": {"target": "T2, human topo II (Homo sapiens, UniProt P11388)", "T2 construct": "purchased Topogen (Columbus, Ohio)", "T2 sequence (P11388 whole entry)": "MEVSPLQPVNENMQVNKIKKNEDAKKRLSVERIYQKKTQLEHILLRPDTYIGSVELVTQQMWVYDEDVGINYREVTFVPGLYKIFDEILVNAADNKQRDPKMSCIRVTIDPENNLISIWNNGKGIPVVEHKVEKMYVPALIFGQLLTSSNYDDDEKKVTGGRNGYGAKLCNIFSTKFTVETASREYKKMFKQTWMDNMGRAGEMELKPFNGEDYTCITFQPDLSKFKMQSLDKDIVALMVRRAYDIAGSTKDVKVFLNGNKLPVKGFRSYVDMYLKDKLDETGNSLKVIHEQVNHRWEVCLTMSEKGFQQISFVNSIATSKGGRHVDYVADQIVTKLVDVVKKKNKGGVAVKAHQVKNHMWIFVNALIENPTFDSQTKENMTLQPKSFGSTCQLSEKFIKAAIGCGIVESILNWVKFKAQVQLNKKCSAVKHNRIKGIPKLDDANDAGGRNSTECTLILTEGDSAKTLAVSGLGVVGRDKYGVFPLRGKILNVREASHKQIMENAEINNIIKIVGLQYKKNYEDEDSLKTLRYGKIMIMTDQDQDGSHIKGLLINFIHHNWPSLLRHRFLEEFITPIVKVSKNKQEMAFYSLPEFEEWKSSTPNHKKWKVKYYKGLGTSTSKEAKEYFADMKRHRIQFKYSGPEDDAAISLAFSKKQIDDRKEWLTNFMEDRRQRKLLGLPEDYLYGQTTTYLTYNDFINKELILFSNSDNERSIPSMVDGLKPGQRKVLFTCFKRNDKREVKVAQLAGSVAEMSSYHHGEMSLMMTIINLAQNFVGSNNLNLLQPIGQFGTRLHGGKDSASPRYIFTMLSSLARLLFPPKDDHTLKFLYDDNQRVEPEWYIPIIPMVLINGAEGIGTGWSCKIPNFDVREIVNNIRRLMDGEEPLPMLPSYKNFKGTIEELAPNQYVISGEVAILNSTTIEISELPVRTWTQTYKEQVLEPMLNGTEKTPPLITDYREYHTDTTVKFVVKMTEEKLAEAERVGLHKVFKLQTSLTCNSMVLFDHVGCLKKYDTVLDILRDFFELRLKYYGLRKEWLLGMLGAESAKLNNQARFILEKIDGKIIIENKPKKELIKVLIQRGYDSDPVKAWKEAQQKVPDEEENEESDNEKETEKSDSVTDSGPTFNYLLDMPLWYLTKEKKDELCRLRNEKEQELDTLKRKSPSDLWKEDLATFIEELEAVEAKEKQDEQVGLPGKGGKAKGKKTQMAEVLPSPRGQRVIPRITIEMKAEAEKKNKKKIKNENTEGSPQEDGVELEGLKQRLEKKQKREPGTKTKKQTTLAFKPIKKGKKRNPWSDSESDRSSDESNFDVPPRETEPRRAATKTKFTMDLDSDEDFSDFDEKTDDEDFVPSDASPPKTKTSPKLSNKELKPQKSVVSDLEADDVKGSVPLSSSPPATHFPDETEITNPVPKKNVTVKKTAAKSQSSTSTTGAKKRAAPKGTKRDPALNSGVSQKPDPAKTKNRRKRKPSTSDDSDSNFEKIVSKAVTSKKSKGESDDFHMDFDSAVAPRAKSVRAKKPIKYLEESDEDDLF", "test": "Topo II-mediated plasmid linearisation assay", "format": "biochemical", "method": "FIG. 3 represents an assay for determining the effect of dehydroequol on double-stranded DNA cleavage. pRYG DNA was incubated with ten units of human topo II (lanes 2-6) in the absence (lane 1) or presence of 10, 30, or 100 μg/ml dehydroequol (lanes 2-4), or 30 μg/ml genistein (lane 5), or 10 μg/ml VP-16 (lane 6). Lane 7, linear pUC8 DNA marker. Double-strand DNA breakage was determined by converting relaxed (REL) or supercoiled (SC) pRYG DNA to the linear (LIN) form.\nA linearisation assay was employed to determine if dehydroequol is a topo II poison. Double-strand breakage results in the appearance of linear DNA. […] This effect, which was evident at 10 μg/ml, peaked at 30 μg/ml.\nTopo II poisons enhance topo II-mediated DNA cleavage and can be identified with the linearisation assay under the reaction conditions provided by the supplier of the enzyme (Topogen, Inc.). Briefly, 20-μl reaction mixtures contained 30 mM Tris-HCl, pH 7.6, 3 mM ATP, 15 mM β-mercaptoethanol, 8 mM MgCl2, 60 mM NaCl, 1 μl of the test agent (or solvent), 0.3 μg of pRYG, and 10 units of human topo II (added last). After a 15-min incubation at 37° C., SDS-proteinase K was added, and following a 15 min incubation at 37° C., samples were extracted with CHCl3-isopropanol and electrophoresis was performed on a 1% agarose gel containing ethidium bromide. Gels were photographed, and photographic negatives were scanned."}, "[4]": {"system": "IL-8", "test": "IL-8 secretion from endothelial cells (immunoassay)", "format": "cell-based, human", "conditions": "TNF stimulated endothelial cells", "method": "IL8 assay: IL-8 assays were performed using a “Quantikine Human IL-8 Immunoassay” (R & D Systems, Minneapolis Minn. USA)."}, "[5]": {"system": "human prostatic adenocarcinoma cell line LNCaP", "test": "Proliferation of LNCaP cells, MTT assay", "format": "cell-based", "method": "Proliferation assay: HUVEC were seeded at 3×10^3 cells per gelatin-coated microtitre well and grown in complete medium for 3 days. Dehydroequol (De) was added 3 hours after plating. Proliferation was measured using the MTT assay (Promega, Wis., USA) and is given as the rate of proliferation over the 3 days±SEM of quadruplicate determinations for each group. Proliferation of LNCaP cells was determined using the MTT assay. Cells were seeded at 2.5×10^3 cells per microtitre well. De was added 4 days after plating and assayed after a further 5 days of growth. Cell viability is expressed as a percentage of control untreated cells."}, "[6]": {"system": "VEGF receptor 2", "test": "VEGF receptor 2 expression on EC, flow cytometric analysis", "format": "cell-based", "conditions": "after De treatment, data not shown"}, "[7]": {"system": "normal NIH 3T3 cells", "test": "Viability of normal NIH 3T3 cells in focus formation assay", "format": "cell-based", "conditions": "10 μg/ml, 3 weeks", "method": "Focus formation assay: Low passage NIH 3T3 cells were transfected with either human ras gene (Ras) or empty vector (Vect) control^19. Two days later the transfected cells were seeded in 6 well plates. After reaching confluence, the cells were cultured in the vehicle DMSO or De (10 μg/ml final) for 3 weeks with media change every 3-4 days (±De). Foci were scored after staining with 0.5% crystal violet. One experiment of two performed is shown."}}, "note": "“Also recorded” adds a separate entry of the source. Read-outs that look alike come from different tables or passages of the source.", "data": [{"smiles": "Oc1ccc(C2=Cc3ccc(O)cc3OC2)cc1", "note": "[Dehydroequol, 4′,7-dihydroxyisoflav-3-ene]", "values": [{"measurement": "potency as a cytotoxic agent relative to genistein", "setting": "[1]", "value": "5-20 times"}, {"measurement": "inhibition of topo I-catalysed relaxation of pUC8 DNA", "setting": "[2]", "value": "did not inhibit"}, {"measurement": "concentration producing detectable (comparable) topo II-mediated linear plasmid DNA", "setting": "[3]", "value": 20, "unit": "µg/mL"}, {"measurement": "effect on topo II-mediated DNA strand breakage compared with positive controls", "setting": "[3]; genistein 30 μg/ml, VP-16 10 μg/ml", "value": "much greater than genistein; also recorded: comparable to VP-16"}, {"measurement": "concentration at which production of linear plasmid DNA peaked", "setting": "[3]; pRYG DNA, proteinase K/SDS", "value": 30, "unit": "µg/mL"}, {"measurement": "concentration at which production of linear plasmid DNA was evident", "setting": "[3]; pRYG DNA, proteinase K/SDS", "value": 10, "unit": "µg/mL"}, {"measurement": "secretion of EL-8", "setting": "[4]", "value": "inhibits the secretion"}, {"measurement": "IC50", "setting": "[5]; LNCaP, read-out: IC50 anti-proliferative", "value": 1.5, "unit": "µg/mL"}, {"measurement": "IC50", "setting": "[5]; LnCaP, n=3 separate experiments, read-out: In vitro cytotoxicity IC50", "value": 4.4, "unit": "µM"}, {"measurement": "level of expression of VEGF receptor 2", "setting": "[6]", "value": "no changes"}, {"measurement": "viability of normal cells", "setting": "[7]", "value": "still maintaining the viability"}]}]}
